Tests used:
[1] = tested on: rat brain homogenates; experiment: Lipid peroxidation inhibitory activity (Fe2+/ascorbic acid, TBA method); conditions: Table 4
[2] = DPPH radical scavenging activity; format: biochemical; conditions: for DPPH radical scavenging activity IC50: Table 3
Description: In order to extract an effective ingredient having an anti-oxidant activity from Cercis chinensis, an experiment was performed following the procedure represented in a schematic diagram of FIG. 1. Particularly, 1 kg of leaves and stems of Cercis chinensis, dried in shadow, were grinded to powder using a pulverizer, which was extracted by ethanol (EtOH) at room temperature twice at intervals of two weeks. For the extraction, ethanol solutions were prepared by adding ethanol gradually, 10% at a time, from 0% to 100%. The prepared ethanol solutions were used for the extraction. […] But, it looses absorbance when being scavenged. Based on that point, an anti-oxidant activity can be measured using DPPH. […] Then, each solution was distributed into a 96 well plate by 10 μl each, into which 190 μl of DPPH(Sigma, St. Louis, Mo, USA) solution whose ethanol concentration was 2×10^−4 M/ml was added. The plate was just left at room temperature for 30 minutes. Finally, OD517 was measured at 517 nm. For a control, DMSO was added instead of the sample, and changes of optical density were investigated. […] DDPH Radical Scavenging Activity (%)=(Acontrol−Asample)/(Acontrol)×100 <Mathematica Formula 1>
Acontrol: Optical density of control group (sample was not added),
Asample: Optical density of experimental group (sample was added).
In order to identify a fraction having an anti oxidant activity among hexane Fr, EtOAc Fr and BuOH Fr obtained above, a DPPH radical scavenging activity was measured using each extract of each fraction following the method used above. At this time, vitamin E, known to have high DPPH radical scavenging activity, was used as a comparing group.
At this time, BHA (tert-butyl-4 hydroxyanisole) and α-tocopherol, synthetic anti-oxidant agents, were used as positive controls.

[3] = tested on: HEK-N/F cells; experiment: Protection of cells from oxidative damage induced by t-butylhydroperoxide; format: cell-based, human; conditions: 1.5 mM t-butylhydroperoxide 3 hours; for TBARS (pmol/mg protein): compound 50.0 µg/ml
Description: t-butylhydroperoxide is metabolized into a free radical intermediate as it comes in a cell, so that it causes lipid peroxidation, resulting in cell damage. This phenomenon is similar to that caused by oxidataive stress accumulated in cells and tissues. […] HEK-N/F, an epidermal cell line of a newborn baby, was treated with 1.5 mM of t-butylhydroxyperoxide for 3 hours.

[4] = Hydroxyl radical scavenging activity (deoxyribose/TBA, method of Halliwell); format: biochemical; conditions: for Hydroxyl radical scavenging activity (%): 10 μg of sample, total volume 1 ml
Description: Hydroxyl radical (HO.) is generated by the reaction of a metal ion or a superoxide radical. Owing to its strong reactivity, hydroxyl radical causes oxidative damages to DNA, protein and lipid in vivo. Nitric oxide (NO.) is reacted with a superoxide radical to generate a peroxy nitrite (ONOO—), also having strong reactivity. […] Particularly, each compound was mixed with 10 μg of a sample dissolved in DMSO, phosphate buffer (20 mM, pH 7.4) 5.6 mM deoxyribose, 0.1 mM FeCl3, 1 mM H2O2 and 0.1 mM ascorbic acid, making total volume 1 ml, which was then reacted at 37° C. for 60 minutes. 250 μl of 20% TCA and 250 μl of 1% TBA solution (dissolved in 50 mM NaOH) were added to the reaction solution, followed by thermal reaction at 95° C. for 5 minutes. After completing the reaction, OD532 was measured. Hydroxyl radical scavenging activity was calculated by the below
<Mathematical Formula 3>. BHA and α-tocopherol were used for a positive control. Hydroxyl Radical Scavenging Activity (%)=(Acontrol−Asample)/(Acontrol−Ablank)×100 <Mathematical Formula 3>
Acontrol: Optical density of control group well (sample was not added),
Asample: Optical density of experimental group well (sample was added),
Ablank: Optical density of well not added with sample, TCA and TBA

[5] = Superoxide radical scavenging activity (xanthine/xanthine oxidase, NBT); format: biochemical; conditions: Table 6
Description: Superoxide radical (O^2−) itself has a little reactivity, but is easily changed into H2O2 that generates hydroxyl radical having strong reactivity or is reacted with nitric oxide (NO.) to generate peroxy nitrite (ONOO^−) having strong reactivity, too. Thus, it might be a reason for oxidation of SH-group, nitration of protein tyrosine, lipid peroxidation and DNA damage. […] Basically, measurement of superoxide radical scavenging activity was performed by investigating the activity of superoxide dismutase (SOD), an enzyme scavenging superoxide by dismutation of the same. In the present invention, an activity of a sample to inhibit superoxide production by the enzyme reaction of xanthine/xanthine oxidase and its another activity to inhibit reaction (NBT+20^2−→NBTH2+2O2) generating formazan by reduction of nitro blue tetrazolium (referred as ‘NBT’ hereinafter) were measured. Particularly, wells of a 96-well plate were supplemented with 50 μl of 4 mM xanthine (Sigma), 50 μl of […] NBT (Sigma), 50 μl of 50 mM phosphate buffer (pH 7.8, 1 mM EDTA) and 10 μl of each sample, into which 40 μl of xanthine oxidase was added to induce a reaction. After the reaction was completed, each reaction solution was collected as scheduled, and OD550 was measured with an ELISA reader. […] Superoxide Radical Scavenging Activity (%)=(Acontrol−Asample)/(Acontrol−Ablank)×100 <Mathematical Formula 4> […]

[6] = Nitric oxide scavenging activity; format: biochemical; parameters: Nitric oxide scavenging activity (%): concentration or dose not given beside the values
[7] = tested on: back skin of SKH-1 hairless mouse; experiment: Protection of skin tissues from UVB irradiation in hairless mice; format: in vivo
Description: 5-6 week old female hairless mice (SKH-hr 1) were raised for 14 days at 24±2° C. with 50±10% relative humidity and 12 hour day/night cycle. 30-60 minutes before the experiment, a sample was hyperdermically injected on 5 spots of the mice and the backs of the mice were irradiated by UVB. 5 mice per each group were put in a cage (20×15×5 cm) and UVB irradiation was performed using a UV lamp (HP-15M, 280-400 nm, max. 312 nm; Atto Co., Japan) at 15 cm distance by 15 kJ/m^2. After the completion of UV irradiation for 24 hours, back skin was cut and stored at −70° C. until peroxidation was measured.
UVB irradiation causes serious lipid peroxidation in skin tissues, so measurement of the peroxided lipid content might lead to the measurement of skin damages. Particularly, UVB was irradiated on the back skin of SKH-1 hairless mouse. 48 hours later, the back skin tissues were cut to measure lipid peroxidation by thiobarbituric acid (TBA) method. The back skin of the mouse was put in a 10×50 mM K-P buffer solution for homogenation.
Hydrogen peroxidation was also investigated. The frozen back skin section was put in 0.1 M Tris-HCl buffer solution (pH 7.5) containing 1 mg/ml of glucose and 1 mg/ml diaminobenzidine (DAB), which was cultured at 37° C. for 5-6 hours. After being washed with distilled water, the solution was stained with 2% methyl green for 60 minutes. Nucleus stained blue and DAB peroxidase (brown) were observed under a microscope.

Row | Compound | Lipid Peroxidation Inhibitory Activity IC50 [1] [µg/mL] | DPPH radical scavenging activity IC50 [2] [µg/mL] | Cell survival rate (%) [3] [%] | TBARS (pmol/mg protein) [3] [pmol/mg protein] | Hydroxyl radical scavenging activity (%) [4] [%] | Superoxide radical scavenging activity IC50 [5] [µg/mL] | Nitric oxide scavenging activity (%) [6] [%] | DPPH radical scavenging activity (in words) [2] | Nitric oxide scavenging activity (in words) [6] | TBARS (nmol/mg protein) ([7]; treating amount 30 mg/kg + UVB irradiation) | TBARS (nmol/mg protein) ([7]; treating amount 50 mg/kg + UVB irradiation) | Hydroxyl radical scavenging activity (in words) [4]
1 | COc1cc(-c2oc3cc(O)cc(O)c3c(=O)c2O[C@@H]2O[C@H](CO[C@@H]3O[C@@H](C)[C@H](O)[C@@H](O)[C@H]3O)[C@@H](O)[C@H](O)[C@H]2O)cc(OC)c1O [Chemical Formula 14, syringetin-3-O-rutinoside] | 19.0 ± 1.52 | 35.1 ± 1.5 | 20.0 ± 2.6 | 2928.1 ± 209.9 | 10.2 | 45.2 ± 2.2 | 6.0 ± 0.8 |  |  |  |  | 
2 | Oc1cc(O)c2c(c1)O[C@H](c1ccc(O)c(O)c1)[C@@H](O)C2 [Chemical Formula 16, (+)-catechin] | 4.71 ± 0.26 | 15.6 ± 0.8 | 24.5 ± 1.9 | 1912.4 ± 112.0 | 12.7 | 16.5 ± 2.0 | 16.9 ± 1.1 | strong radical scavenging activity | comparatively high nitric oxide scavenging activity |  |  | 
3 | O=C1O[C@H]([C@@H](O)CO)C([O-])=C1OP(=O)([O-])[O-].O=C1O[C@H]([C@@H](O)CO)C([O-])=C1OP(=O)([O-])[O-].[Mg+2].[Mg+2].[Mg+2] [MAP, magnesium-L-ascorbyl-2-phosphate, reference compound] |  |  |  |  |  |  |  |  |  | 0.28 ± 0.06 | 0.16 ± 0.05 | 
4 | (−)-epicatechin-3-O-gallate [Chemical Formula 17] | 2.90 ± 0.06 | 6.8 ± 0.5 | 49.4 ± 6.4 | 1007.3 ± 95.2 | 39.9 | 11.9 ± 2.1 | 25.4 ± 1.2 |  | comparatively high nitric oxide scavenging activity |  |  | remarkably higher hydroxyl radical scavenging activities
5 | (−)-epigallocatechin-3-O-gallate [Chemical Formula 18] | 1.00 ± 0.08 | 6.7 ± 0.4 | 46.6 ± 5.9 | 1032.6 ± 103.5 | 54.0 | 24.0 ± 3.5 | 26.2 ± 0.9 |  | comparatively high nitric oxide scavenging activity |  |  | remarkably higher hydroxyl radical scavenging activities
